Test [1] deals with influenza A/WSN virus transcriptase (Influenza A virus, UniProt P03427+P03430+P15659). Put plainly: biochemical. Conditions: 45 minutes at 31° C, 1% DMSO; read-out: IC50, concentration required to achieve 50% inhibition of influenza A/WSN virus transcriptase activity.
In another test the test system is influenza A/WSN virus. The test can be described thus: Plaque reduction in MDCK cells, influenza A/WSN.
For test [2], the target named is influenza virus cleavage of cap 1 RNA (Influenza A virus, UniProt P03427+P15659). Put plainly: Assay for cleavage of cap 1 AIMV RNA4 by influenza virus. Format: biochemical. Conditions: read-out: IC50, 50% inhibition of influenza virus cleavage of cap 1 RNA.
A further test concerns MDCK cells. Put plainly: Cell growth assay (MTT) in MDCK cells. As to conditions: Canis lupus familiaris, 2-3 days, read-out: IC50, concentration required to achieve a 50% reduction of optical density (cell growth). Format: cell-based, canine. The protocol:
Effects of the pyridazine derivatives of the invention on cell growth were determined in MDCK cells in 96 well plates by a tetrazolium-based calorimetric method (R. Pauwels et al., J. Virol. Methods, 20, 309-321 (1988)). This assay detects the in situ reduction of 3-(4,5-dimethylthiazol-2-yl)-2,5-diphenyltetrazolium bromide (MTT) by viable cells. Approximately 1×10^4 cells were seeded per well and incubated with drug-containing growth media for 2-3 days (3-4 cell doublings). The drug concentration resulting in a reduction of optical density by 50% was determined.

Test [3] has as its system influenza A/Victoria virus. The test can be described thus: Plaque reduction in MDCK cells, influenza A/Victoria.
Description: (§1) Compounds were evaluated for antiviral activity against influenza A/WSN, A/Victoria and B/Lee viruses by plaque reduction in Madin Darby canine kidney (MDCK) cells. Duplicate monolayers of MDCK cells in 6 well plates were washed free of protein-containing media, infected with 50-100 plaque-forming units of virus (0.4 ml. volume), and incubated at 37° C. for 60 minutes. After aspiration of the virus inoculum, a 0.6% agarose overlay (3 ml.) containing Eagle minimal essential media, trypsin (8 μg/ml.), and the appropriate drug dilution (final concentration of 1% DMSO) was added to the cell monolayer. Plates were incubated at 370° C. in a humidified atmosphere of 5% CO2 in air. After 48 hours, monolayers were fixed with glutaraldehyde, stained with 0.1% crystal violet and the plaques were counted. The percentage of plaque inhibition relative to the infected control (no drug) plates were calculated for each drug concentration and the 50% inhibitory concentration (IC50) was determined.
A further test concerns influenza. Put plainly: Potency against influenza (test not specified).
A further test has as its system influenza B/Lee virus. Put plainly: Plaque reduction in MDCK cells, influenza B/Lee. As to conditions: read-out: IC50, […], B/Lee, 48 hours.
The mark [4] stands for this setting: MDCK, 48 h, read-out: IC50, […], A/WSN, MDCK cells, 48 hours.
Where [5] appears, read: MDCK, 48 h, read-out: IC50, […], A/Victoria, MDCK cells, 48 hours.
Setting [6] is: read-out: IC50, […], A/WSN, MDCK cells, 48 hours.

Each structure is given as a SMILES string. Counter-ions that a name gives are not always drawn. Like-named read-outs stand apart in the source and are kept apart here.

Description for influenza B/Lee virus: as §1

For the compound `CC1=NN(c2ccc(S(N)(=O)=O)cc2)C(=O)C(=O)C1=O` [Example 4, 4-(6-methyl-3,4,5-trioxo-2H,3H,4H,5H-pyridazinyl)benzene sulfonamide], the IC50 was 1 µM in test [1]; 8 µM with influenza A/WSN virus (setting [4]); 2 µM in test [2]; over 100 µM with MDCK cells; 8 µM in test [3] (setting [5]).

For `CC1=NN(c2ccc(C(=O)O)cc2C)C(=O)C(=O)C1=O` [Example 1, 3-methyl-4-(6-methyl-3,4,5-trioxo-2H,3H,4H,5H-pyridazinyl)benzoic acid], the IC50 in test [1] was 0.1 µM; in the test with influenza A/WSN virus (setting [4]), 50 µM; in test [2], 0.2 µM; with MDCK cells, over 200 µM; in test [3] (setting [5]), 90 µM.

In the case of `CC1=NN(c2ccc(S(=O)(=O)Nc3ccccc3)cc2)C(=O)C(=O)C1=O` [N-phenyl-4-(6-methyl-3,4,5-trioxo-2H,3H,4H,5H-pyridazinyl)benzenesulfonamide], the potency against influenza result in the test with influenza is recorded as “significant potency”.

On to `CNS(=O)(=O)c1ccc(Cl)c(N2N=C(C)C(=O)C(=O)C2=O)c1` [N-methyl-4-chloro-3-(6-methyl-3,4,5-trioxo-2H,3H,4H,5H-pyridazinyl)benzenesulfonamide], for which the potency against influenza result in the test with influenza is listed as “significant potency”.

Turning to `CC1=NN(c2ccc(S(=O)(=O)Nc3cccnc3)cc2)C(=O)C(=O)C1=O` [N-(3-pyridyl)-4-(6-methyl-3,4,5-trioxo-2H,3H,4H,5H-pyridazinyl)benzenesulfonamide], the potency against influenza entry in the test on influenza was “significant potency”.

For the compound `CC1=NN(c2ccc(-c3nn[nH]n3)cc2)C(=O)C(=O)C1=O` [Example 7, Sodium Salt of 2-(4-tetrazolylphenyl) 2,3,4,5-tetrahydro-6-methyl-pyridazine-3,4,5-trione], the IC50 in the test with influenza A/WSN virus (setting [4]) was 2 µM.

Take `CC1=NN(c2ccc(C)c(S(N)(=O)=O)c2)C(=O)C(=O)C1=O` [2-methyl-5-(6-methyl-3,4,5-trioxo-2H,3H,4H,5H-pyridazinyl)benzenesulfonamide]: in the test on influenza, the potency against influenza result is “significant potency”.

On to `CC1=NN(c2ccc(C(N)=O)cc2)C(=O)C(=O)C1=O` [4-(6-methyl-3,4,5-trioxo-2H,3H,4H,5H-pyridazinyl)benzenecarboxamide], for which the potency against influenza entry with influenza is recorded as “significant potency”.

`CC1=NN(c2ccc3c(c2)S(=O)(=O)NC3=O)C(=O)C(=O)C1=O` [6-(6-methyl-3,4,5-trioxo-2H,3H,4H,5H-pyridazinyl)-1,1-dioxo-1,2-dihydro-1λ^6-benz<d>isothiazol-3-one]: the potency against influenza result in the test with influenza was “significant potency”.

Consider `CC1=NN(c2ccc(-c3nnn[nH]3)cc2)C(=O)C(=O)C1=O` [Example 6, 2-(4-tetrazolylphenyl) 2,3,4,5-tetrahydro-6-methyl-pyridazine-3,4,5-trione], for which the IC50 in test [1] amounted to 0.2 µM; in the test with influenza A/WSN virus (setting [4]), 1 µM; in test [3] (setting [5]), 2 µM.

Regarding `CC1=NN(c2ccc3[nH]ncc3c2)C(=O)C(=O)C1=O` [Example 8, 5-indazolyl-2,3,4,5-tetrahydro-6-methyl-pyridazine-3,4,5-trione], the IC50 with influenza A/WSN virus (setting [4]) was 50 µM.

In the case of `CC1=NN(c2ccc(C(=O)O)c(Cl)c2)C(=O)C(=O)C1=O` [Example 3, 2-chloro-4-(6-methyl-3,4,5-trioxo-2H,3H,4H,5H-pyridazinyl)benzoic acid], the IC50 in the test with influenza A/WSN virus (setting [4]) turned out to be 16 µM; in test [3] (setting [5]), 50 µM.

For `CNS(=O)(=O)c1ccc(N2N=C(C)C(=O)C(=O)C2=O)cc1` [N-methyl-4-(6-methyl-3,4,5-trioxo-2H,3H,4H,5H-pyridazinyl)benzenesulfonamide], in the test with influenza, the potency against influenza result is “significant potency”.

For the compound `CC1=NN(c2ccc(S(N)(=O)=O)cc2)C(=O)C(=O)C1=O` [Example 5, Sodium Salt of 4-(6-methyl-3,4,5-trioxo-2H,3H,4H,5H-pyridazinyl)benzoic sulfonamide], the IC50 came out at 30 µM in the test on influenza B/Lee virus; 8 µM in the test with influenza A/WSN virus (setting [6]); 11 µM in test [3] (read-out: IC50, […], A/Victoria, MDCK cells, 48 hours).

With `CC1=NN(c2ccc(C(=O)O)cc2C)C(=O)C(=O)C1=O` [Example 2, Sodium Salt of 3-methyl-4-(6-methyl-3,4,5,-trioxo-2H,3H,4H,5H-pyridazinyl)benzoic acid], the values for the IC50 with influenza B/Lee virus and in the test on influenza A/WSN virus (setting [6]) were over 200 µM and 100 µM, respectively.

On to `CC1=NN(c2ccc3[nH]nnc3c2)C(=O)C(=O)C1=O` [Example 9, 5-benzotriazolyl-2,3,4,5-tetrahydro-6-methyl-pyridazine-3,4,5-trione], for which the IC50 in the test on influenza A/WSN virus (setting [4]) was 20 µM.

Regarding `CC(=O)NS(=O)(=O)c1ccc(N2N=C(C)C(=O)C(=O)C2=O)cc1` [N-acetyl-4-(6-methyl-3,4,S-trioxo-2H,3H,4H,5H-pyridazinyl)benzenesulfonamide], the potency against influenza result in the test on influenza is recorded as “significant potency”.
